Data taken from article PMC11521937, “Expression and characterization of pantothenate energy‐coupling factor transporters as an anti‐infective drug target” (Protein Science : A Publication of the Protein Society, 2024).

Key:
S. pneumoniae DSM‐20566 = experiment: Galleria mellonella infection model with S. pneumoniae; type: in vivo; conditions: S. pneumoniae OD600 1.5, after 3 days
Protocol: Next, we examined the antibacterial effect of the ECF inhibitors under in vivo conditions by using G. mellonella larvae. This model was adopted based on the work of Alhayek et al. ([2022]) and serves to assess the efficacy of ECF inhibitors against S. pneumoniae induced infection. Larvae were injected with the overnight culture of S. pneumoniae DSM‐20566, incubated for 3 days at 37°C and 5% CO2 without shaking, and survival rates were monitored daily for 3 days (Figure 4).
G. mellonella larvae were used as an in vivo infection model to test selected ECF inhibitors, following the methodology established by Alhayek et al. ([2022]). S. pneumoniae DSM‐20566 was cultured in Todd–Hewitt medium with 0.1% choline at 37°C with 5% CO2 until an OD600 of 1.5 or higher was reached. Larvae were infected by injecting 10 μL of the culture into the left proleg and incubated at 37°C, 5% CO2 for 72–96 h. Survival was monitored daily. Control groups received either PBS or no injection. […]. The larvae used in this study were purchased from VALOMOLIA Company (Strasbourg, France).

HepG2 cells = experiment: In vitro MTT cytotoxicity assay, HepG2; type: cell-based, human; conditions: 48 h
Protocol: (§1) In vitro cytotoxicity evaluation […]
(§2) with minor modifications, which will be detailed below.
(§3) To obtain information regarding the toxicity of our compounds, their impact on the viability of human cells was investigated. HepG2 and A549 cells (2 × 10^4 cells per well) were seeded in 96-well, flat-bottomed culture plates in 100 µL culture medium (DMEM containing 10% fetal calve serum, 1% penicillin-streptomycin). Twenty-four hours after seeding the cells, medium was removed and replaced by medium containing test compounds in a final DMSO concentration of 1%. Compounds were tested in duplicates at a single concentration in 1% DMSO/medium. Epirubicin and doxorubicin were used as positive controls in serial dilutions starting from 10 µM, and rifampicin was used as a negative control (at 100 µM). The living cell mass was determined 48 h after treatment with compounds by adding 0.1 volumes of 3-(4,5-dimethylthiazol-2-yl)-2,5-diphenyltetrazolium bromide (MTT) solution (5 mg/mL sterile PBS) (Sigma, St. Louis, MO) to the wells. After incubating the cells for 30 min at 37 °C (atmosphere containing 5% CO2), medium was removed and MTT crystals were dissolved in 75 µL of a solution containing 10% SDS and 0.5% acetic acid in DMSO. The optical density (OD) of the samples was determined photometrically at 570 nm in a PHERAstar Omega plate reader (BMG labtech, Ortenberg, Germany). To obtain percent viability for each sample, their ODs were related to those of DMSO controls. At least two independent measurements were performed for each compound. The calculation of IC50 was performed using the nonlinear regression function of GraphPad Prism 10 (GraphPad Software, San Diego, CA, USA). […]

A549 cells = experiment: In vitro MTT cytotoxicity assay, A549; type: cell-based, human; conditions: 48 h, 100 µM
Protocol: as §1, §2, §3

Row | SMILES | larval survival (S. pneumoniae DSM‐20566; compound at 10 μM) | larval survival (S. pneumoniae DSM‐20566; compound at 50 μM) | Percent (%) cell viability at 100 μM, HepG2 cells (HepG2 cells) | Percent (%) cell viability at 100 μM, A549 cells (A549 cells) [%]
1 | CC(C)(C)OC(=O)Nc1ccc(OCc2cccc3ccccc23)cc1C(=O)O [Compound 3] | 60% | 50% | – | –
2 | O=C(O)c1cccc(NCc2ccc(-c3ccccc3Cl)o2)c1 [Compound 6] | – | – | non‐toxic | –
3 | O=C(O)c1cccc(NCc2ccc(-c3cccc(Cl)c3)o2)c1 [Compound 5] | – | – | non‐toxic | –
4 | O=C(O)c1cc(OCc2ccc(Br)c3ccccc23)ccc1O [Compound 2] | up to 70% | up to 70% | – | 124 ± 15
5 | O=C(O)c1cc(OCc2cccc3ccccc23)ccc1O [Compound 1] | – | – | – | 111 ± 6
6 | O=C(O)c1cccc(NCc2ccc(-c3ccc(Cl)cc3)o2)c1 [Compound 4] | 40% | 60% | – | –
